System: Methicillin-resistant Staphylococcus aureus
Details: 0.005% (by weight) active PHMB
Description: This Example utilized 1.5-milliliter tubes containing a 1-milliliter blend of phosphate-buffered saline (pH 7.2) and 5% (w/v) bovine serum albumin soil. The tubes were placed in electric heat blocks set for 22° C., 30° C., 40° C. and 50° C., respectively. The tubes remained in the electric heat blocks for approximately 10 minutes.
Duplicate tubes without PHMB at each temperature were also made.
All of the tubes were then placed back into the heat blocks at their respective temperatures. […] The letheen samples were then plated in duplicate on Tryptic Soy agar plates using a WASP2 spiral plater (commercially available from Don Whitley Scientific, Ltd., Yorkshire, United Kingdom).
After 48 hours, the plates were evaluated using a total plate count to determine the biocidal efficacy of each sample.

polyhexamethylene biguanide [PHMB]
difference in efficacy between 22° C. and 50° C.: greater than 1.4 LOG,o

Reference: patent US20070148448A1, “Microencapsulated delivery vehicles including cooling agents” (Kimberly-Clark Worldwide, Inc., priority 2005, published 2007)
